Measured values as given in PubChem BioAssay (NCI).
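In this assay, cells in 96-well plates receive the compound at five concentrations for 48 hours. Endpoints are linearly interpolated between the surrounding concentrations. GI50: concentration for 50% inhibition of growth. TGI marks complete inhibition of growth.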

How the values were obtained:
Experiment in all cases: NCI tumour cell line growth inhibition, 48 h
NCI-H226 lung = test system: NCI-H226 lung
NCI-H23 lung = test system: NCI-H23 lung
NCI-H460 lung = test system: NCI-H460 lung
NCI-H522 lung = test system: NCI-H522 lung
NCI/ADR-RES ovarian = test system: NCI/ADR-RES ovarian
OVCAR-3 ovarian = test system: OVCAR-3 ovarian
OVCAR-4 ovarian = test system: OVCAR-4 ovarian
OVCAR-5 ovarian = test system: OVCAR-5 ovarian
OVCAR-8 ovarian = test system: OVCAR-8 ovarian
PC-3 prostate = test system: PC-3 prostate
RPMI-8226 leukemia = test system: RPMI-8226 leukemia
SF-268 CNS = test system: SF-268 CNS
SF-295 CNS = test system: SF-295 CNS
SF-539 CNS = test system: SF-539 CNS
SK-MEL-2 melanoma = test system: SK-MEL-2 melanoma
SK-MEL-28 melanoma = test system: SK-MEL-28 melanoma
SK-MEL-5 melanoma = test system: SK-MEL-5 melanoma
SK-OV-3 ovarian = test system: SK-OV-3 ovarian
SN12C renal = test system: SN12C renal
SNB-19 CNS = test system: SNB-19 CNS
SNB-75 CNS = test system: SNB-75 CNS
SR leukemia = test system: SR leukemia
SW-620 colon = test system: SW-620 colon
T-47D breast = test system: T-47D breast
TK-10 renal = test system: TK-10 renal
U251 CNS = test system: U251 CNS
UACC-257 melanoma = test system: UACC-257 melanoma
UACC-62 melanoma = test system: UACC-62 melanoma
UO-31 renal = test system: UO-31 renal

CCNCCOc1ccc(/C(=C(/CC)c2ccc(Cl)cc2)c2ccc(OCCCN(C)C)cc2)cc1
TGI (NCI-H226 lung): 7.59 µM
GI50 (NCI-H23 lung): 4.31 µM
TGI (NCI-H23 lung): 8.15 µM
GI50 (NCI-H460 lung): 3.9 µM
TGI (NCI-H460 lung): 7.6 µM
GI50 (NCI-H522 lung): 4 µM
TGI (NCI-H522 lung): 8.04 µM
GI50 (NCI/ADR-RES ovarian): 4.19 µM
TGI (NCI/ADR-RES ovarian): 8.08 µM
GI50 (OVCAR-3 ovarian): 3.46 µM
TGI (OVCAR-3 ovarian): 6.87 µM
GI50 (OVCAR-4 ovarian): 3.83 µM
TGI (OVCAR-4 ovarian): 8.07 µM
GI50 (OVCAR-5 ovarian): 4.07 µM
TGI (OVCAR-5 ovarian): 7.67 µM
GI50 (OVCAR-8 ovarian): 3.91 µM
TGI (OVCAR-8 ovarian): 7.64 µM
GI50 (PC-3 prostate): 4.01 µM
TGI (PC-3 prostate): 9.01 µM
GI50 (RPMI-8226 leukemia): 4.98 µM
TGI (RPMI-8226 leukemia): 13.5 µM
GI50 (SF-268 CNS): 3.89 µM
TGI (SF-268 CNS): 7.92 µM
GI50 (SF-295 CNS): 4.44 µM
TGI (SF-295 CNS): 8.24 µM
GI50 (SF-539 CNS): 3.97 µM
TGI (SF-539 CNS): 7.51 µM
GI50 (SK-MEL-2 melanoma): 4.13 µM
TGI (SK-MEL-2 melanoma): 7.77 µM
GI50 (SK-MEL-28 melanoma): 4.16 µM
TGI (SK-MEL-28 melanoma): 7.78 µM
GI50 (SK-MEL-5 melanoma): 4.51 µM
TGI (SK-MEL-5 melanoma): 8.21 µM
GI50 (SK-OV-3 ovarian): 4.36 µM
TGI (SK-OV-3 ovarian): 8.34 µM
GI50 (SN12C renal): 3.84 µM
TGI (SN12C renal): 7.42 µM
GI50 (SNB-19 CNS): 4.45 µM
TGI (SNB-19 CNS): 8.21 µM
GI50 (SNB-75 CNS): 3.68 µM
TGI (SNB-75 CNS): 7.45 µM
GI50 (SR leukemia): 2.98 µM
TGI (SR leukemia): 8.52 µM
GI50 (SW-620 colon): 1.75 µM
TGI (SW-620 colon): 5.24 µM
GI50 (T-47D breast): 3.05 µM
TGI (T-47D breast): 7.55 µM
GI50 (TK-10 renal): 3.99 µM
TGI (TK-10 renal): 8.07 µM
GI50 (U251 CNS): 3.17 µM
TGI (U251 CNS): 6.61 µM
GI50 (UACC-257 melanoma): 4.04 µM
TGI (UACC-257 melanoma): 7.83 µM
GI50 (UACC-62 melanoma): 4.48 µM
TGI (UACC-62 melanoma): 8.22 µM
GI50 (UO-31 renal): 3.32 µM
TGI (UO-31 renal): 6.68 µM
